Results published in patent US20260209260A1, “VECTORIZED NHC IRIDIUM(III) COMPLEXES AND USE THEREOF IN PHOTODYNAMIC THERAPY AND/OR DIAGNOSTIC” (CENTRE NATIONAL DE LA RECHERCHE SCIENTIFIQUE, priority 2022, published 2026).
Read-outs that look alike come from different tables or passages of the source.

Experiments:
[1] = tested on: NIH-3T3 fibroblast cells (non-tumor); experiment: Cell viability assay (MTT), dark and blue light; assay type: cell-based, Murine; conditions: for Photosensitizing index (PI) NIH-3T3: dark vs blue light 458 nm
Procedure: Cells were grown in humidified incubators at 37° C. in 5% CO2. Murine MC3T3 osteoblast and NIH-3T3 fibroblast cells-used as non-tumor cell models-were cultured in a-MEM medium and DMEM medium supplemented with 10% fetal bovine serum (FBS) and 1% Penicillin/Streptomycin (P/S) antibiotics, respectively. Human T24 bladder, MGHU3 bladder, Scaber bladder, A549 lung, MCF7 breast, MiaPaCa2 pancreas cancer cells were cultured in DMEM medium supplemented with 10% FBS and 1% P/S antibiotics. […] Human Hela cervix and HepG2 liver cancer cells were cultured EMEM medium supplemented with 10% FBS and 1% P/S antibiotics.
(§1) MTT reagent (3-(4,5-dimethylthiazol-2-yl)-2,5-diphenyltetrazolium bromide) was used to determine cell death as originally described by Mosmann. Briefly, cells were seeded from 5,000 to 10,000 cells/well in 24-well plates (1 mL) depending on the cell type and allowed to attach overnight. The complexes were prepared in DMSO. The concentration of the complexes was calculated based on the elemental composition of the complexes determined by the elemental analyses. All cell viability experiments were carried out with a fixed concentration of 0.1% (v/v) DMSO. After 72 h of treatment, cells were incubated at 37° C. and 5% CO2 with 25 μL of MTT solution (5 mg/ml; Sigma-Aldrich) in 24-well plates for 3 to 4 h. After solubilization with 500 μL of DMSO, formazan was quantified spectrophotometrically with a microplate reader at 570 nm absorbance (ClarioSTAR, BMG LabTech). […] All the results were calculated from data obtained in at least three independent experiments performed in triplicate.
(§2) Two sets of experiments were conducted in parallel for each complex to be studied:
(§3) 1. The cells were incubated with the different complexes (in the dark) for 72 h.
(§4) 2. The cells were incubated for 8 h with the different complexes (in the dark), then irradiated for 10 min, followed by an incubation in the dark up to 72 h.

[2] = tested on: PC-3 prostate cancer cells (PSMA-negative); experiment: Cell viability assay (MTT), dark and blue light; assay type: cell-based, Human; conditions: for SI (vs NIH-3T3) PC-3 Blue: blue light 458 nm; for Photosensitizing index (PI) PC-3: dark vs blue light 458 nm
Procedure: (§5) Cells were grown in humidified incubators at 37° C. in 5% CO2. Murine MC3T3 osteoblast and NIH-3T3 fibroblast cells-used as non-tumor cell models-were cultured in a-MEM medium and DMEM medium supplemented with 10% fetal bovine serum (FBS) and 1% Penicillin/Streptomycin (P/S) antibiotics, respectively. Human T24 bladder, MGHU3 bladder, Scaber bladder, A549 lung, MCF7 breast, MiaPaCa2 pancreas cancer cells were cultured in DMEM medium supplemented with 10% FBS and 1% P/S antibiotics. Human ASPC-1 pancreas, PC-3 prostate, DU-145 prostate, C4-2B prostate and 22rV1 prostate cancer cells were cultured in RPMI medium supplemented with 10% FBS and 1% P/S antibiotics. Human Hela cervix and HepG2 liver cancer cells were cultured EMEM medium supplemented with 10% FBS and 1% P/S antibiotics.
as §1
(§6) Irradiation was conducted using an in-house device, a series of blue light LEDs selected according to the absorption spectra of the compounds at 458 nm wavelength with an emitted power of 9.6 Watts. The light fluence was measured at 458 nm with an optical power meter Thorlabs PM100A at different distances between the cell layer and the light source (5 and 10 cm).
as §2, §3, §4

[3] = tested on: C4-2B prostate cancer cells (PSMA-positive); experiment: Cell viability assay (MTT), dark and blue light; assay type: cell-based, Human; conditions: for Photosensitizing index (PI) C4-2b: dark vs blue light 458 nm
Procedure: as §5, §1, §6, §2, §3, §4

[4] = Emission lifetime measurement; assay type: physicochemical
Procedure: Fluorescence lifetime measurements were performed by an Edinburgh FLS920 spectrofluorimeter equipped with a TCC900 card for data acquisition in time-correlated single-photon counting experiments (0.5 ns time resolution) with a D2 lamp and an LDH—P-C-405 pulsed diode laser. The estimated experimental error is 2 nm on the band maximum (5% on the lifetime, 10% on the fluorescence quantum yield).
The emission lifetimes of biotin-vectorized complexes (I-a) to (I-l) range from 138 ns to 411 ns, among them, the lifetime of biotin-vectorized complexes (I-c), (I-e), (I-k) are 411, 224, and 322 ns respectively. The emission lifetimes of FTS-vectorized complexes (II-a) to (II-l) range from 167 ns to 486 ns, among them, the lifetime of FTS-vectorized complexes (II-c) and (II-k) are 319 and 486 ns respectively. The emission lifetimes of PSMA-vectorized complexes (III-a) to (III-l) are in the range of 159-649 ns, among them, the lifetime of complexes (III-a) and (III-k) were 248 and 649 ns, respectively. The emission lifetimes of Fc-vectorized complexes (IV-a) to (IV-l) are in the range of 178-228 ns.

[5] = Luminescence emission spectra and quantum yield; assay type: physicochemical; conditions: for λem: CH2Cl2, room temperature, λexc 365 nm or 470 nm; for ΦP emission phosphorescence quantum yield: room temperature, reference POPOP in hexane or rhodamine B in ethanol
Procedure: Fluorescence and phosphorescence emission spectra were obtained with a HORIBA JOBIN YVON, fluromax-4 and spectrofluorometer.
Luminescence quantum yields were measured according to the method of Demas and Crosby, on solution samples at RT. The quantum yield is defined as: […]
Where ΦP is the quantum yield of the sample, ΦR is the know quantum yield of the reference standard. […].
The luminescence spectra of vectorized iridium(III) complexes were determined in CH2Cl2 at room temperature (Table 3).

[6] = UV/Vis absorption spectra; assay type: physicochemical; conditions: room temperature; for maximum absorption, lowest-lying bands in the visible region over 360 nm: CH2Cl2 or CH2Cl2/MeOH (1:1); for λmax (nm) ε (M^−1 · cm^−1): air-saturated CH2Cl2 or CH2Cl2/MeOH (1:1), 50 μM, ε in brackets, sh = shoulder
Procedure: UV/Vis absorption spectra were recorded at RT on solutions contained in quartz cuvettes (optical pathlength 1 cm, Hellma®) with a PerkinElmer® UV/VIS/NIR spectrophotometer Lambda 950 and a PerkinElmer® detector UV/VIS/NIR Accessory 2D Detector Module.

[7] = Lipophilicity: octanol-water partition coefficient, shake-flask method
Procedure: The octanol-water partition coefficients (P) of all the complexes were determined using a shake-flask method^8. Water (100 mL, distilled after milli-Q purification) and n-octanol (100 mL, Sigma Aldrich, ACS spectrophotometric grade, ≥99%) were shaken together for 24 h to allow saturation of both phases. Stock solutions of the compounds ([…]) were prepared in the aqueous phase. Aliquots (2 mL) of each of these stock solutions were then added to an equal volume of the n-octanol phase. The resultant biphasic solution was mixed for 15 min and then centrifuged (3000 tr/min, 5 min) to separate the phases. The concentrations of the complex in the organic and aqueous phases were then determined using UV absorbance spectroscopy (260 nm). The blank is the water saturated with n-octanol. Log P was defined as logarithm of the ratio of the concentrations of the complex in the organic and aqueous phases (values reported are the means of at least three separated determinations).
The Log P values have been determined by a classical shake-flask method.

[8] = 8 h in the dark, blue light 458 nm 10 min, then dark up to 72 h, read-out: GI50 NIH-3T3 Blue
[9] = NIH-3T3, blue light, read-out: GI50
[10] = in the dark, 72 h, read-out: GI50 NIH-3T3 Dark
[11] = 8 h in the dark, blue light 458 nm 10 min, then dark up to 72 h, read-out: GI50 PC-3 Blue
[12] = PC3, blue light, read-out: GI50
[13] = in the dark, 72 h, read-out: GI50 PC-3 Dark
[14] = n-octanol/water, shake-flask, mean of at least three determinations

Compound	GI50 [1, 8] [µM]	GI50 [1, 9] [µM]	GI50 ([1]; NIH-3T3, dark, read-out: GI50) [µM]	Photosensitizing index (PI) NIH-3T3 [1]	GI50 [1, 10] [µM]	GI50 [2, 11] [µM]	GI50 [2, 12] [µM]	GI50 ([2]; PC3, dark, read-out: GI50) [µM]	SI (vs NIH-3T3) PC-3 Blue [2]	Photosensitizing index (PI) PC-3 [2]	GI50 [2, 13] [µM]	Photosensitizing index (PI) C4-2b [3]	τ1 emission lifetime [4] [ns]	λem [5] [nm]	ΦP emission phosphorescence quantum yield [5] [%]	maximum absorption, lowest-lying bands in the visible region over 360 nm [6]	λmax (nm) ε (M^−1 · cm^−1) [6]	Log P [7, 14]	also measured
COC(=O)c1cccc2[c]1[Ir-3]13([c]4c(C(=O)OC)cccc4-c4cccc[n+]41)([c]1n(CCC(=O)NCCCC[C@H](NC(=O)N[C@@H](CCC(=O)O)C(=O)O)C(=O)O)cc[n+]1-c1cccc[n+]13)[n+]1ccccc1-2.F[P-](F)(F)(F)(F)F [III-d]	> 100	> 100	> 100	did not show any photosensitizing effect	> 100	> 100	> 100	> 100	1.0	did not show any photosensitizing effect	> 100	did not show any photosensitizing effect	219	498	2.1	around 370 nm	370 (13650), 452 (sh) (565) nm (M^−1 · cm^−1)	−0.52 ± 0.01	–
F[P-](F)(F)(F)(F)F.O=C(O)CC[C@H](NC(=O)N[C@@H](CCCCNC(=O)CCn1cc[n+]2[c]1[Ir-3]13([c]4ccccc4-c4ccc5ccccc5[n+]41)([c]1ccccc1-c1ccc4ccccc4[n+]13)[n+]1ccccc1-2)C(=O)O)C(=O)O [III-g]	> 100	> 100	> 100	–	> 100	48.7	48.7	> 100	>2.1	–	≥ 100	–	191	593	0.1	–	334 (18100), 436 (4280) nm (M^−1 · cm^−1)	–	Photosensitizing index (PI) ([2]; PC3, dark vs blue light): >2.1; GI50 ([3]; 8 h in the dark, blue light 458 nm 10 min, then dark up to 72 h, read-out: GI50 C4-2b Blue): 17.6 µM; GI50 ([3]; C4-2b, blue light, read-out: GI50): 17.6 µM; Photosensitizing index (PI) ([3]; C4-2b, dark vs blue light): 1.2; GI50 ([3]; C4-2b, dark, read-out: GI50): 21.3 µM; SI (vs NIH-3T3) C4-2b Blue ([3]; blue light 458 nm): >5.7; GI50 ([3]; in the dark, 72 h, read-out: GI50 C4-2b Dark): 21.3 µM; Log P [7]: 0.33 ± 0.01
Cc1ccc2[c](c1)[Ir-3]13([c]4cc(C)ccc4-c4cccc[n+]41)([c]1n(CCC(=O)NCCCC[C@H](NC(=O)N[C@@H](CCC(=O)O)C(=O)O)C(=O)O)cc[n+]1-c1cccc[n+]13)[n+]1ccccc1-2.F[P-](F)(F)(F)(F)F [III-b]	> 100	> 100	> 100	did not show any photosensitizing effect	> 100	> 100	> 100	> 100	1.0	did not show any photosensitizing effect	> 100	did not show any photosensitizing effect	194	–	1.8	around 380 nm	310 (sh) (23310), 379 (7615) nm (M^−1 · cm^−1)	−0.14 ± 0.04	–
